# In patent US7642221B2, “Substituted thien-3-yl-sulphonylamino(thio)carbonyl-triazoline(ethi)ones” (Bayer Aktiengesellschaft, priority 1999, dated 2010):
# Key:
# Assay type in all cases: in vivo
# [1] = system: Wheat; assay: Post-emergence test/greenhouse; conditions: greenhouse, rated after three weeks
# Method: (§1) • Solvent: 5 parts by weight of acetone • Emulsifier: 1 part by weight of alkylaryl polyglycol ether
# (§2) To produce a suitable preparation of active compound, one part by weight of active compound is mixed with the stated amount of solvent, the stated amount of emulsifier is added and the concentrate is diluted with water to the desired concentration.
# (§3) Test plants which have a height of 5-15 cm are sprayed with the preparation of active compound such that the particular amounts of active compound desired are applied per unit area. The concentration of the spray liquor is chosen so that the particular amounts of active compound desired are applied in 1000 l of water/ha.
# (§4) After three weeks, the degree of damage to the plants is rated in % damage in comparison to the development of the untreated control.
# (§5) The figures denote: • 0%=no effect (like untreated control) • 100%=total destruction
# [2] = system: Setaria; assay: Post-emergence test/greenhouse; conditions: greenhouse, rated after three weeks
# Method: as §1, §2, §3, §4, §5
# [3] = system: Amaranthus; assay: Post-emergence test/greenhouse; conditions: greenhouse, rated after three weeks
# Method: as §1, §2, §3, §4, §5
# [4] = system: Abutilon; assay: Post-emergence test/greenhouse; conditions: greenhouse, rated after three weeks
# Method: as §1, §2, §3, §4, §5
# [5] = system: Maize; assay: Post-emergence test/greenhouse; conditions: greenhouse, 15 g of ai/ha, rated after three weeks
# Method: as §1, §2, §3, §4, §5
# [6] = system: Stellaria; assay: Post-emergence test/greenhouse; conditions: greenhouse, rated after three weeks
# Method: as §1, §2, §3, §4, §5
# [7] = system: Solanum; assay: Post-emergence test/greenhouse; conditions: greenhouse, rated after three weeks
# Method: as §1, §2, §3, §4, §5
# [8] = system: weeds; assay: Pre-emergence test, activity against weeds
# Method: as §1
# (§6) To produce a suitable preparation of active compound, 1 part by weight of active compound is mixed with the stated amount of solvent, the stated amount of emulsifier is added and the concentrate is diluted with water to the desired concentration.
# (§7) Seeds of the test plants are sown in normal soil. After about 24 hours, the soil is sprayed with the preparation of active compound such that the particular amount of active compound desired is applied per unit area. The concentration of the spray liquor is chosen so that the particular amount of active compound desired is applied in 1000 liters of water per hectare.
# as §4
# (§8) The figure denote: • 0%=no effect (like untreated control) • 100%=total destruction
# [9] = system: Xanthium; assay: Pre-emergence test/greenhouse; conditions: greenhouse, 250 g of ai/ha, rated after three weeks
# Method: as §1, §6, §7, §4, §8
# [10] = system: Galium; assay: Pre-emergence test/greenhouse; conditions: greenhouse, 250 g of ai/ha, rated after three weeks
# Method: as §1, §6, §7, §4, §8
# [11] = system: Setaria; assay: Pre-emergence test/greenhouse; conditions: greenhouse, rated after three weeks
# Method: as §1, §6, §7, §4, §8
# [12] = system: Amaranthus; assay: Pre-emergence test/greenhouse; conditions: greenhouse, rated after three weeks
# Method: as §1, §6, §7, §4, §8
# [13] = system: Abutilon; assay: Pre-emergence test/greenhouse; conditions: greenhouse, 250 g of ai/ha, rated after three weeks
# Method: as §1, §6, §7, §4, §8
# [14] = system: Cyperus; assay: Pre-emergence test/greenhouse; conditions: greenhouse, rated after three weeks
# Method: as §1, §6, §7, §4, §8
# [15] = system: Sinapis; assay: Pre-emergence test/greenhouse; conditions: greenhouse, 250 g of ai/ha, rated after three weeks
# Method: as §1, §6, §7, §4, §8
# [16] = system: Alopecurus; assay: Pre-emergence test/greenhouse; conditions: greenhouse, rated after three weeks
# Method: as §1, §6, §7, §4, §8
# [17] = system: weeds; assay: Post-emergence test, activity against weeds
# Method: as §1, §2, §3, §4, §5
# [18] = system: Xanthium; assay: Post-emergence test/greenhouse; conditions: greenhouse, 250 g of ai/ha, rated after three weeks
# Method: as §1, §2, §3, §4, §5
# [19] = system: Avenafatua; assay: Post-emergence test/greenhouse; conditions: greenhouse, 250 g of ai/ha, rated after three weeks
# Method: as §1, §2, §3, §4, §5
# [20] = system: Sinapis; assay: Post-emergence test/greenhouse; conditions: greenhouse, 250 g of ai/ha, rated after three weeks
# Method: as §1, §2, §3, §4, §5
# [21] = system: Alopecurus; assay: Post-emergence test/greenhouse; conditions: greenhouse, 250 g of ai/ha, rated after three weeks
# Method: as §1, §2, §3, §4, §5
# [22] = system: Matricaria; assay: Pre-emergence test/greenhouse; conditions: greenhouse, 60 g of ai/ha, rated after three weeks
# Method: as §1, §6, §7, §4, §8
# [23] = system: Chenopodium; assay: Pre-emergence test/greenhouse; conditions: greenhouse, 60 g of ai/ha, rated after three weeks
# Method: as §1, §6, §7, §4, §8
# [24] = system: Maize; assay: Pre-emergence test/greenhouse; conditions: greenhouse, 60 g of ai/ha, rated after three weeks
# Method: as §1, §6, §7, §4, §8
# [25] = system: Solanum; assay: Pre-emergence test/greenhouse; conditions: greenhouse, rated after three weeks
# Method: as §1, §6, §7, §4, §8
# [26] = system: Digitaria; assay: Pre-emergence test/greenhouse; conditions: greenhouse, 60 g of ai/ha, rated after three weeks
# Method: as §1, §6, §7, §4, §8
# [27] = system: Chenopodium; assay: Post-emergence test/greenhouse; conditions: greenhouse, 2 g of ai/ha, rated after three weeks
# Method: as §1, §2, §3, §4, §5
# [28] = system: Veronica; assay: Post-emergence test/greenhouse; conditions: greenhouse, 2 g of ai/ha, rated after three weeks
# Method: as §1, §2, §3, §4, §5
# [29] = system: Echinochloa; assay: Post-emergence test/greenhouse; conditions: greenhouse, 2 g of ai/ha, rated after three weeks
# Method: as §1, §2, §3, §4, §5
# [30] = system: Viola; assay: Post-emergence test/greenhouse; conditions: greenhouse, 2 g of ai/ha, rated after three weeks
# Method: as §1, §2, §3, §4, §5
# [31] = system: Barley; assay: Post-emergence test/greenhouse; conditions: greenhouse, 2 g of ai/ha, rated after three weeks
# Method: as §1, §2, §3, §4, §5
# [32] = system: Matricaria; assay: Post-emergence test/greenhouse; conditions: greenhouse, 8 g of ai/ha, rated after three weeks
# Method: as §1, §2, §3, §4, §5
# [33] = system: Ipomoea; assay: Post-emergence test/greenhouse; conditions: greenhouse, 8 g of ai/ha, rated after three weeks
# Method: as §1, §2, §3, §4, §5
# [34] = system: Bromus; assay: Pre-emergence test/greenhouse; conditions: greenhouse, 125 g of ai/ha, rated after three weeks
# Method: as §1, §6, §7, §4, §8
# [35] = system: Wheat; assay: Pre-emergence test/greenhouse; conditions: greenhouse, 125 g of ai/ha, rated after three weeks
# Method: as §1, §6, §7, §4, §8
# [36] = system: Veronica; assay: Pre-emergence test/greenhouse; conditions: greenhouse, 125 g of ai/ha, rated after three weeks
# Method: as §1, §6, §7, §4, §8
# [37] = system: Echinochloa; assay: Pre-emergence test/greenhouse; conditions: greenhouse, 125 g of ai/ha, rated after three weeks
# Method: as §1, §6, §7, §4, §8
# [38] = system: Viola; assay: Pre-emergence test/greenhouse; conditions: greenhouse, 125 g of ai/ha, rated after three weeks
# Method: as §1, §6, §7, §4, §8
# [39] = system: Stellaria; assay: Pre-emergence test/greenhouse; conditions: greenhouse, 125 g of ai/ha, rated after three weeks
# Method: as §1, §6, §7, §4, §8
compound,measurement,setting,value
COC(=O)c1csc(C)c1S(=O)(=O)NC(=O)n1nc(C)n(C)c1=O [Example 10],"degree of damage to the plants, Wheat",[1]; 15 g of ai/ha,10%
same,"degree of damage to the plants, Setaria",[2]; 15 g of ai/ha,95%
same,"degree of damage to the plants, Amaranthus",[3]; 15 g of ai/ha,90%
same,"degree of damage to the plants, Abutilon",[4]; 15 g of ai/ha,90%
same,"degree of damage to the plants, Maize",[5],10%
same,"degree of damage to the plants, Stellaria",[6]; 15 g of ai/ha,95%
same,"degree of damage to the plants, Solanum",[7]; 15 g of ai/ha,90%
same,activity against weeds,[8],very strong activity
same,"degree of damage to the plants, Xanthium",[9],90%
same,"degree of damage to the plants, Galium",[10],95%
same,"degree of damage to the plants, Setaria",[11]; 250 g of ai/ha,100%
same,"degree of damage to the plants, Amaranthus",[12]; 250 g of ai/ha,100%
same,"degree of damage to the plants, Abutilon",[13],95%
same,"degree of damage to the plants, Cyperus",[14]; 250 g of ai/ha,95%
same,"degree of damage to the plants, Sinapis",[15],100%
same,"degree of damage to the plants, Alopecurus",[16]; 250 g of ai/ha,95%
same,activity against weeds,[17],very strong activity
CCc1nn(C(=O)NS(=O)(=O)c2c(C(=O)OC)csc2C)c(=O)n1C [Example 11],"degree of damage to the plants, Xanthium",[18],100%
same,"degree of damage to the plants, Avenafatua",[19],100%
same,"degree of damage to the plants, Setaria",[2]; 250 g of ai/ha,100%
same,"degree of damage to the plants, Amaranthus",[3]; 250 g of ai/ha,100%
same,"degree of damage to the plants, Abutilon",[4]; 250 g of ai/ha,100%
same,"degree of damage to the plants, Sinapis",[20],100%
same,"degree of damage to the plants, Alopecurus",[21],100%
same,activity against weeds,[8],very strong activity
same,"degree of damage to the plants, Matricaria",[22],100%
same,"degree of damage to the plants, Chenopodium",[23],100%
same,"degree of damage to the plants, Setaria",[11]; 60 g of ai/ha,100%
same,"degree of damage to the plants, Amaranthus",[12]; 60 g of ai/ha,100%
same,"degree of damage to the plants, Maize",[24],10%
same,"degree of damage to the plants, Solanum",[25]; 60 g of ai/ha,100%
same,"degree of damage to the plants, Digitaria",[26],100%
same,"degree of damage to the plants, Alopecurus",[16]; 60 g of ai/ha,100%
same,activity against weeds,[17],very strong activity
COC(=O)c1csc(C)c1S(=O)(=O)NC(=O)n1nc(OC)n(C2CC2)c1=O [Example 5],"degree of damage to the plants, Chenopodium",[27],95%
same,"degree of damage to the plants, Wheat",[1]; 2 g of ai/ha,10%
same,"degree of damage to the plants, Veronica",[28],90%
same,"degree of damage to the plants, Echinochloa",[29],95%
same,"degree of damage to the plants, Amaranthus",[3]; 2 g of ai/ha,99%
same,"degree of damage to the plants, Viola",[30],90%
same,"degree of damage to the plants, Barley",[31],10%
same,"degree of damage to the plants, Stellaria",[6]; 2 g of ai/ha,100%
same,activity against weeds,[8],very strong activity
same,"degree of damage to the plants, Xanthium",[9],99%
same,"degree of damage to the plants, Galium",[10],95%
same,"degree of damage to the plants, Setaria",[11]; 250 g of ai/ha,100%
same,"degree of damage to the plants, Amaranthus",[12]; 250 g of ai/ha,100%
same,"degree of damage to the plants, Abutilon",[13],95%
same,"degree of damage to the plants, Cyperus",[14]; 250 g of ai/ha,100%
same,"degree of damage to the plants, Sinapis",[15],95%
same,"degree of damage to the plants, Alopecurus",[16]; 250 g of ai/ha,99%
same,activity against weeds,[17],very strong activity
COC(=O)c1csc(C)c1S(=O)(=O)NC(=O)n1nc(OC(C)C)n(C)c1=O [Example 4],"degree of damage to the plants, Matricaria",[32],90%
same,"degree of damage to the plants, Wheat",[1]; 8 g of ai/ha,10%
same,"degree of damage to the plants, Amaranthus",[3]; 8 g of ai/ha,95%
same,"degree of damage to the plants, Abutilon",[4]; 8 g of ai/ha,95%
same,"degree of damage to the plants, Ipomoea",[33],95%
same,"degree of damage to the plants, Stellaria",[6]; 8 g of ai/ha,95%
same,"degree of damage to the plants, Solanum",[7]; 8 g of ai/ha,95%
same,activity against weeds,[8],very strong activity
same,"degree of damage to the plants, Bromus",[34],100%
same,"degree of damage to the plants, Wheat",[35],20%
same,"degree of damage to the plants, Veronica",[36],100%
same,"degree of damage to the plants, Echinochloa",[37],100%
same,"degree of damage to the plants, Viola",[38],100%
same,"degree of damage to the plants, Cyperus",[14]; 125 g of ai/ha,100%
same,"degree of damage to the plants, Stellaria",[39],100%
same,"degree of damage to the plants, Solanum",[25]; 125 g of ai/ha,100%
same,activity against weeds,[17],very strong activity
